Data reported in patent US9474790B2, “Stable, protracted GLP-1/glucagon receptor co-agonists for medical use” (Novo Nordisk A/S, priority 2013, dated 2016).
Numbered stars: 1 amine (or outer) side, 2 acyl side, 3 side chain; on linkers, the order of the positions; unused ones are H or OH. Bridge positions count the residues as written; N and C are the ends. Square brackets hold non-standard residues; d marks the D form. Side chains are listed from the residue outwards. Peptide text beside a SMILES is read from it. I, II: the chains in the order shown. * marks the point of attachment. C18 diacid = O=C(O)CCCCCCCCCCCCCCCCC(=O)*; γGlu = O=C(O)[C@H](CCC(=O)[*:2])N[*:1]; Ac4c = NC1(C(=O)O)CCC1; AEEA = NCCOCCOCC(=O)O; Aib = CC(C)(N)C(=O)O

target: T1, human glucagon receptor (Homo sapiens, UniProt P47871); assay: Glucagon receptor binding, 125I-glucagon displacement SPA on isolated membranes; conditions: displacement of 125I-glucagon from membranes; read-out: IC50 GlucR
T1 construct: expressed in transfected cells; host or cells: BHK cells (parent BHK570, CRE luciferase clone BHK/KZ10-20-48), clone pLJ6'-4-25
T1 sequence (P47871 26-477): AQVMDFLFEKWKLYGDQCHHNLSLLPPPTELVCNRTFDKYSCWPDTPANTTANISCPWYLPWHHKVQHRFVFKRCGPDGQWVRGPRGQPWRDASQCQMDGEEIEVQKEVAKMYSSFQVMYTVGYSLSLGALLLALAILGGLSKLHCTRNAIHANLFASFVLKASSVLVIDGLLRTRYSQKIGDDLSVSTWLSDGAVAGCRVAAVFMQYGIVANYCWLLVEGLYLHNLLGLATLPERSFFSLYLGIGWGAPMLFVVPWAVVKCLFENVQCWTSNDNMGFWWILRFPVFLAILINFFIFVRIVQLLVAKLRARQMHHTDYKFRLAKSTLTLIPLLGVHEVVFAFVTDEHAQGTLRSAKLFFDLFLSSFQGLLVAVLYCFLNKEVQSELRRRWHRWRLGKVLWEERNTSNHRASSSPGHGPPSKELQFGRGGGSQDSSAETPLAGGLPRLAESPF
Description: The purpose of this assay was to test the in vitro receptor binding activity (i.e. affinity) of the glucagon derivatives of the invention. The receptor binding activity is a measure of affinity of a derivative for the human glucagon receptor.
The receptor binding of each compound to the human glucagon receptor was measured in a displacement binding assay. In this type of assay a labelled ligand (in this case 125I-glucagon) is bound to the receptor. Each derivative was added in a series of concentrations to isolated membranes containing the human glucagon receptor and displacement of the labelled ligand is monitored. The receptor binding was reported as the concentration at which half of the labelled ligand is displaced from the receptor, the IC50 value.
In order to test the binding of the derivatives to albumin, the assay may be performed in a very low concentration of serum albumin (max. 0.001% final assay concentration) as well as in the presence of a higher concentration of serum albumin (0.2% final assay concentration). An increase of the IC50 value, in the presence of serum albumin indicates an affinity to serum albumin and represents a method to predict a protracted pharmacokinetic profile of the test substance in animal models.
The following chemicals were used in the assay: DMEM w Glutamax (Gibco 61965-026), Pen/strep (Invitrogen 15140-122), G418 (Invitrogen 10131-027), Versene (Gibco 15040), 1 M Hepes (Gibco 15630), PBS (Invitrogen 14190-094), fetal calf serum (Invitrogen 16140-071), MgCl2 (Merck 1.05832.1000), EDTA (Invitrogen 15575-038), CaCl2 (Sigma, C5080), Tween 20 (Amresco 0850C335), ovalbumin (Sigma A5503), SPA particles (wheat germ agglutinin (WGA) SPA beads, Perkin Elmer RPNQ0001), [125I]-glucagon (produced in-house), OptiPlate™-96 (Packard 6005290).
HME buffer consisted of 25 mM HEPES, 2 mM MgCl2 and 1 mM EDTA, and pH was adjusted to 7.4. Assay buffer consisted of 50 mM HEPES supplemented with 5 mM MgCl2, 1 mM CaCl2, 0.02% Tween 20 and 0.1% Ovalbumin, and pH was adjusted to 7.4.
The cells used in this assay (clone BHK hGCGR A3*25) were BHK cells stable transfected with an expression plasmid containing the cDNA encoding the human glucagon receptor.
The cells were grown at 5% CO2 in DMEM, 10% fetal calf serum, 1% Pen/Strep (Penicillin/Streptomycin) and 1.0 mg/ml of the selection marker G418. To make a membrane preparation the cells were grown to approximately 80% confluence. The cells were washed twice in phosphate-buffered saline and harvested. The cells were pelleted using a brief centrifugation and the cell pellet was kept on ice. Lyse the cells by adding approx. 5 ml HME buffer, mix by pipetting and snap freeze in liquid nitrogen. Thaw quickly and add HME buffer to 10 ml. The cell pellet was homogenised with an ULTRA-THURRAX dispersing instrument for 20-30 sec. The homogenate was centrifuged at 20.000×G, 4° C. for 10 min. The pellet was re-suspended (homogenised) in 1-2 ml HME buffer. The protein concentration was determined. The membranes were aliquoted and snap-frozen in liquid nitrogen and stored at minus 80° C.
1. For the receptor binding assay, 50 μl of the assay buffer was added to each well of an assay plate.
2. Test compounds were serially diluted to give the following concentrations: 8×10EE-7 M, 8×10EE-8 M, 8×10EE-9 M, 8×10EE-10 M, 8×10EE-11 M, 8×10EE-12 M and 8×10EE-13 M. Twenty-five μl were added to appropriate wells in the assay plate.
3. Cell membrane aliquots were thawed and diluted to their working concentration. Fifty μl were added to each well in the assay plate.
4. WGA SPA beads were suspended in assay buffer at 20 mg/ml. The suspension was diluted to 10 mg/ml in assay buffer just prior to addition to the assay plate. Fifty μl were added to each well in the assay plate.
5. The incubation was started by adding 25 μl of 480 pM solution of [125I]-glucagon to each well of the assay plate. A 25 μl aliquot was reserved for measuring total counts/well.
6. The assay plate was incubated for 2 h at 25° C.
7. […]

IC50 | SMILES
6.7 nM | CC(C)C[C@H](NC(=O)[C@H](CC(C)C)NC(=O)[C@H](Cc1c[nH]c2ccccc12)NC(=O)[C@H](CCC(N)=O)NC(=O)[C@@H](NC(=O)[C@H](Cc1ccccc1)NC(=O)[C@H](CCC(=O)O)NC(=O)[C@H](CCC(N)=O)NC(=O)[C@H](C)NC(=O)[C@H](C)NC(=O)[C@H](CCCCN)NC(=O)[C@H](CO)NC(=O)[C@H](CC(=O)O)NC(=O)[C@H](CC(C)C)NC(=O)[C@H](Cc1ccc(O)cc1)NC(=O)[C@H](CCCCN)NC(=O)[C@H](CO)NC(=O)[C@H](CC(C)C)NC(=O)[C@H](CC(=O)O)NC(=O)[C@H](CO)NC(=O)[C@@H](NC(=O)[C@H](Cc1ccccc1)NC(=O)[C@@H](NC(=O)CNC(=O)[C@H](CCC(N)=O)NC(=O)C(C)(C)NC(=O)[C@@H](N)Cc1c[nH]cn1)[C@@H](C)O)[C@@H](C)O)C(C)C)C(=O)N[C@@H](CC(N)=O)C(=O)N[C@@H](CCCCNC(=O)CC[C@H](NC(=O)CC[C@H](NC(=O)COCCOCCNC(=O)COCCOCCNC(=O)CC[C@H](NC(=O)CCCCCCCCCCCCCCCCC(=O)O)C(=O)O)C(=O)O)C(=O)O)C(N)=O [Example 8, N^ε29-[(4S)-4-carboxy-4-[[(4S)-4-carboxy-4-[[2-[2-[2-[[2-[2-[2-[[(4S)-4-carboxy-4-(17-carboxyheptadecanoylamino)butanoyl]amino]ethoxy]ethoxy]acetyl]amino]ethoxy]ethoxy]acetyl]amino]butanoyl]amino]butanoyl]-[Aib2,Leu10,Lys17,Ala18,Glu21,Leu27,Lys29]-Glucagon amide] (H-H[Aib]QGTFTSDLSKYLDSKAAQEFVQWLLNK([γGlu-γGlu-AEEA-AEEA-γGlu-C18 diacid])-NH2; N-terminus assumed)
1.2 nM | CC(C)C[C@H](NC(=O)[C@H](Cc1ccc(O)cc1)NC(=O)[C@H](CCCCN)NC(=O)[C@H](CO)NC(=O)[C@H](CC(C)C)NC(=O)[C@H](CC(=O)O)NC(=O)[C@H](CO)NC(=O)[C@@H](NC(=O)[C@H](Cc1ccccc1)NC(=O)[C@@H](NC(=O)CNC(=O)[C@H](CCC(N)=O)NC(=O)C(C)(C)NC(=O)[C@@H](N)Cc1c[nH]cn1)[C@@H](C)O)[C@@H](C)O)C(=O)N[C@@H](CC(=O)O)C(=O)N[C@@H](CCCCNC(=O)CC[C@H](NC(=O)CC[C@H](NC(=O)COCCOCCNC(=O)COCCOCCNC(=O)CC[C@H](NC(=O)CCCCCCCCCCCCCCCCC(=O)O)C(=O)O)C(=O)O)C(=O)O)C(=O)N[C@@H](CCCNC(=N)N)C(=O)N[C@@H](CCCNC(=N)N)C(=O)N[C@@H](C)C(=O)N[C@@H](CCCNC(=N)N)C(=O)N[C@@H](CCC(=O)O)C(=O)N[C@@H](Cc1ccccc1)C(=O)N[C@H](C(=O)N[C@@H](CCC(N)=O)C(=O)N[C@@H](Cc1c[nH]c2ccccc12)C(=O)N[C@@H](CC(C)C)C(=O)N[C@@H](CC(C)C)C(=O)N[C@@H](CC(N)=O)C(=O)N[C@H](C(N)=O)[C@@H](C)O)C(C)C [Example 10, N^ε16-[(4S)-4-carboxy-4-[[(4S)-4-carboxy-4-[[2-[2-[2-[[2-[2-[2-[[(4S)-4-carboxy-4-(17-carboxyheptadecanoylamino)butanoyl]amino]ethoxy]ethoxy]acetyl]amino]ethoxy]ethoxy]acetyl]amino]butanoyl]amino]butanoyl]-[Aib2,Leu10,Lys16,Arg20,Glu21,Leu27]-Glucagon amide] (H-H[Aib]QGTFTSDLSKYLDK([γGlu-γGlu-AEEA-AEEA-γGlu-C18 diacid])RRAREFVQWLLNT-NH2; N-terminus assumed)
3.9 nM | CC(C)C[C@H](NC(=O)[C@H](Cc1ccc(O)cc1)NC(=O)[C@H](CCCCN)NC(=O)[C@H](CO)NC(=O)[C@H](CC(C)C)NC(=O)[C@H](CC(=O)O)NC(=O)[C@H](CO)NC(=O)[C@@H](NC(=O)[C@H](Cc1ccccc1)NC(=O)[C@@H](NC(=O)CNC(=O)[C@H](CCC(N)=O)NC(=O)C1(NC(=O)[C@@H](N)Cc2c[nH]cn2)CCC1)[C@@H](C)O)[C@@H](C)O)C(=O)N[C@@H](CCC(=O)O)C(=O)N[C@@H](CCC(=O)O)C(=O)N[C@@H](CCCNC(=N)N)C(=O)N[C@@H](CCCNC(=N)N)C(=O)N[C@@H](C)C(=O)N[C@@H](CCCNC(=N)N)C(=O)N[C@@H](CC(=O)O)C(=O)N[C@@H](Cc1ccccc1)C(=O)N[C@H](C(=O)N[C@@H](CCC(N)=O)C(=O)N[C@@H](Cc1c[nH]c2ccccc12)C(=O)N[C@@H](CC(C)C)C(=O)N[C@@H](CC(C)C)C(=O)N[C@@H](CCCCNC(=O)CNC(=O)[C@H](CO)NC(=O)[C@H](CCC(=O)O)NC(=O)CNC(=O)[C@H](CO)NC(=O)CC[C@H](NC(=O)CC[C@H](NC(=O)CCCCCCCCCCCCCCCCC(=O)O)C(=O)O)C(=O)O)C(=O)N[C@H](C(N)=O)[C@@H](C)O)C(C)C [Example 16, N^ε28-[2-[[(2S)-2-[[(2S)-4-carboxy-2-[[2-[[(2S)-2-[[(4S)-4-carboxy-4-[[(4S)-4-carboxy-4-(17-carboxyheptadecanoylamino)butanoyl]amino]butanoyl]amino]-3-hydroxypropanoyl]amino]acetyl]amino]butanoyl]amino]-3-hydroxypropanoyl]amino]acetyl]-[Acb2,Leu10,Glu15,Glu16,Arg20,Leu27,Lys28]-Glucagon amide] (I: H-H[Ac4c]QGTFTSDLSKYLEERRARDFVQWLLKT-NH2 / II: {C18 diacid-γGlu-γGlu}-SGESG; amide I:28-II:C; N-terminus assumed)
8.5 nM | CC(C)C[C@H](NC(=O)[C@H](Cc1c[nH]c2ccccc12)NC(=O)[C@H](C)NC(=O)[C@@H](NC(=O)[C@H](Cc1ccccc1)NC(=O)[C@H](CCC(=O)O)NC(=O)[C@H](CCCNC(=N)N)NC(=O)[C@H](C)NC(=O)[C@H](CCCNC(=N)N)NC(=O)[C@H](CCCNC(=N)N)NC(=O)[C@H](CCCCNC(=O)CC[C@H](NC(=O)COCCOCCNC(=O)COCCOCCNC(=O)CC[C@H](NC(=O)CC[C@H](NC(=O)CCCCCCCCCCCCCCCCC(=O)O)C(=O)O)C(=O)O)C(=O)O)NC(=O)[C@H](CC(=O)O)NC(=O)[C@H](CC(C)C)NC(=O)[C@H](Cc1ccc(O)cc1)NC(=O)[C@H](CCCCN)NC(=O)[C@H](CO)NC(=O)[C@H](CC(C)C)NC(=O)[C@H](CC(=O)O)NC(=O)[C@H](CO)NC(=O)[C@@H](NC(=O)[C@H](Cc1ccccc1)NC(=O)[C@@H](NC(=O)CNC(=O)[C@H](CCC(N)=O)NC(=O)C(C)(C)NC(=O)[C@@H](N)Cc1c[nH]cn1)[C@@H](C)O)[C@@H](C)O)C(C)C)C(=O)N[C@@H](CC(C)C)C(=O)N[C@@H](CC(N)=O)C(=O)N[C@H](C(N)=O)[C@@H](C)O [Example 19, N^ε29-[(4S)-4-carboxy-4-[[2-[2-[2-[[2-[2-[2-[[(4S)-4-carboxy-4-[[(4S)-4-carboxy-4-(17-carboxyheptadecanoylamino)butanoyl]amino]butanoyl]amino]ethoxy]ethoxy]acetyl]amino]ethoxy]ethoxy]acetyl]amino]butanoyl]-[Aib2,Leu10,Lys16,Arg20,Glu21,Ala24,Leu27]-Glucagon amide] (H-H[Aib]QGTFTSDLSKYLDK([γGlu-AEEA-AEEA-γGlu-γGlu-C18 diacid])RRAREFVAWLLNT-NH2; N-terminus assumed)
